Source: patent US20220267394A1, “COMPOUNDS FOR INDUCING TISSUE FORMATION AND USES THEREOF” (HISTIDE AG, priority 2015, published 2022)

System: hMSCs
Test: Loss of stemness: STRO-1 expression by immunostaining
Format: cell-based, human
Details: Table 6, previously reported peptides in solution, 400 ng/mL
Method: The cells were first fixed for 20 min with 4% paraformaldehyde/PBS at 4° C. After fixation, the cells were permeabilized in PBS containing 1% Triton X-100 for 15 min. Runx2, Osterix, Stro-1, Vinculin, Phalloidin, Osteopontin, Sox2, Sox9 antibodies were visualized by treating the cells with 1% (v/v) specific monoclonal antibodies for 1 hour at 37° C. Then the samples were incubated with Alexa Fluor® 568 or 647 (F(ab′)2 fragment of IgG(H+L)) during 30 min at room temperature. The cell nuclei were counterstained in 20 ng/mL DAPI for 10 min at room temperature.
For this type of quantification the freeware image analysis ImageJ® software was used. The raw image was first converted to an 8-bit file, and then the unsharp mask feature was used (settings 1:0.2) to remove the image background (rolling ball radius 10). After smoothing, the resulting image, which appears similar to the original photomicrograph but with minimal background, was then converted to a binary image by setting a threshold. Threshold values were determined empirically by selecting a setting, which gave the most accurate binary image for a subset of randomly selected photomicrographs. The cell area was determined by manual delineation on raw fluorescent images. Total contact area and mean contact area per cell were calculated by “analyse particules” in ImageJ®. A minimum of 30 cells per condition were analyzed. Stro-1, CD-34+, and CD-105 expressions were determined using this procedure.
hMSCs were cultured on conventional cell culture plastic plates with or without the presence in the cell culture media of different GFR-binding compounds as described herein (SEQ ID NO: 50 to 88) in solution. […] This was probed by Stro-1 immunostaining after cell fixation as described in the Methods section. The quantification of Stro-1 positive contact numbers and areas was performed as described in the Methods section. A minimum of 30 cells per condition were analyzed. Stro-1 positive marrow cells are multipotential and capable of differentiating into multiple mesenchymal lineages including stromal cells with a phenotype resembling vascular smooth muscle cells that can support hematopoiesis, adipocytes, osteoblasts, and chondrocytes.
Using the method detailed in the description, the RMSD of 57 previously reported peptide sequences have been determined (Table 6) and correlated with the expression of STRO-1 in solution. […] One should note that it is commonly admitted that the expression of STRO-1 in a cell is indicative of a cell that is in a substantially non-differentiated state and the decrease of its expression of at least about 20% is indicative of a cell that has started a process of differentiation but which may not result in the differentiation of the cell. A decrease of more than 50% would be indicative of the presence of a significant shift towards a differentiated state. A decrease of more than 70% would be indicative of the presence of a very important shift towards a differentiated state. A sustained decrease (e.g. for at least 96 h) of more than 50% or 70% would be indicative of the presence of an even more important shift towards a differentiated state.
Likewise, using the method detailed in the description, the RMSD of 75 GFR-binding peptide sequence representatives of the invention have been determined (Table 8) and correlated with the expression of STRO-1. SEQ ID NO: 1 to 49 were tested in combination with a bioactive carrier as defined above in the Examples Section (i.e. titanium, ceramics, collagen, etc. . . . ), whereas SEQ ID NO: 2242 to 2267 were tested in solution.

Row | Substance | STRO-1 expression (%)
1 | 2160 (PIIYYVGRNVRVEQLSNMVVRRA; Comparative sequence) [compound 2160] | 98%
2 | 2161 (DPLPIIYYVGRNVRVEQLSNMVVRACKCS; Comparative sequence) [compound 2161] | 97%
3 | 2162 (ENVNLKKYRNMIVKSCGCH; Peptide reported in US20040039543, SEQ ID NO:107) [compound 2162] | 97%
4 | 2163 (TPTYSRPVQKAELTR; Peptide reported in US20130332133, SEQ ID NO:16645) [compound 2163] | 97%
5 | 2164 (HIRSTTSSYVSLKSNITNRTIQTPTYSYT; Peptide reported in US20120216318, SEQ ID NO:347659) [compound 2164] | 98%
6 | 2165 (LMDLARMPSCLRGERAVPQDTTGYFTWSSNITPLNFIF; Peptide reported in US20110300149, SEQ ID NO:32) [compound 2165] | 92%
7 | 2166 (NEVLRFCGIQVPEGDEPLT; Peptide reported in WO2013040142, SEQ ID NO:101213) [compound 2166] | 98%
8 | 2167 (LNEVLRFCGIQVPEGDEPLTY; Peptide reported in WO2013040142, SEQ ID NO:89702) [compound 2167] | 99%
9 | 2168 (MSRVLFEPLTFLQTGSGLPDEKTLG; Peptide reported in US20080081768, SEQ ID NO:28800) [compound 2168] | 94%
10 | 2169 (IKSPARHSAPTHQEPLP; Peptide reported in WO2013040142, SEQ ID NO:3157977) [compound 2169] | 98%
11 | 2170 (NPGASASPCCVSQDLEPLPIL; Peptide reported in JP06025288, SEQ ID NO:8) [compound 2170] | 86%
12 | 2171 (SHQSAGDSIKSPARHSAPTHQEPLPD; Peptide reported in WO2013040142, SEQ ID NO:3137100) [compound 2171] | 91%
13 | 2172 (PNYSVPAGNKPLSERE; Peptide reported in WO2013040142, SEQ ID NO:543064) [compound 2172] | 95%
14 | 2173 (TKPLSSLLFPNWNTTTTPTPPRP; Peptide reported in WO2013040142, SEQ ID NO:866827) [compound 2173] | 91%
15 | 2174 (CVTKPLSSLLFPNWNTTTTPTPP; Peptide reported in WO2013040142, SEQ ID NO:642255) [compound 2174] | 92%
16 | 2175 (VGAAWWLREQGSPINTLAVPA; Peptide reported in WO2013040142, SEQ ID NO:133294) [compound 2175] | 88%
17 | 2176 (MQCRELVTQVTEEPISQTEDGEEQESTTTPRLKGQKKE; Peptide reported in US20070083334, SEQ ID NO:958173) [compound 2176] | 85%
18 | 2177 (VPTKLEPISVLYKDDMGVPTLKYHYEGMAVSECGCR; Peptide reported in US8969040, SEQ ID NO:89) [compound 2177] | 81%
19 | 2178 (SPISILVVPELDASLPEKRPSLDGFEALLVYNAPKA; Peptide reported in US20120246748, SEQ ID NO:119912) [compound 2178] | 82%
20 | 2179 (TLXPIVSSXNPSPISFRXIKILLHDLEVVPFPKSRVR; Peptide reported in US20040031072, SEQ ID NO:272830; MOD_RES (3), (9), (18): Xaa is A) [compound 2179] | 84%

Row | Substance | STRO-1 expression (%)
21 | 2180 (VPTKLSPISILYLDKGVVTYKFKYEGMSVAECGCR; Peptide reported in US8969040, SEQ ID NO:90) [compound 2180] | 80%
22 | 2181 (VPTKLSPISILYKDDMGVPTYKFKYEGMSVAECGCR; Peptide reported in US20140056902, SEQ ID NO:88) [compound 2181] | 82%
23 | 2182 (VPTELSPISLLYLDEFEKVTLKNYQDMVVDG; Peptide reported in US20120244575, SEQ ID NO:4324) [compound 2182] | 87%
24 | 2183 (TPTVVSATSL; Peptide reported in US20150153356, SEQ ID NO:51419) [compound 2183] | 98%
25 | 2184 (SATSRLALSDVPAELAA; Peptide reported in WO2013040142, SEQ ID NO:729730) [compound 2184] | 98%
26 | 2185 (LGIAAIIFLQQVPAAFSATSPPG; Peptide reported in WO2013040142, SEQ ID NO:1139935) [compound 2185] | 97%
27 | 2186 (SVPAVCSATSATGPYSSVTVTSWPSIVATGGTT; Peptide reported in EP1687419, SEQ ID NO:42) [compound 2186] | 92%
28 | 2187 (SVPAVCSATSATGPYSTATNTVWPSIVATGGTT; Peptide reported in EP1687419, SEQ ID NO:43) [compound 2187] | 92%
29 | 2188 (SSVPAVCSATSATGPYSSGSVEVTFDVYATTVY; Peptide reported in EP1687419, SEQ ID NO:45) [compound 2188] | 92%
30 | 2189 (SSVPAVCSATSATGPYSTATNTVWFDVYATTVY; Peptide reported in EP1687419, SEQ ID NO:46) [compound 2189] | 91%
31 | 2190 (VHLLKPHAVPKACCAPTKLSATSVLYYDSSNNVILRKHRNMVVRACGCH; Peptide reported in US5688678, SEQ ID NO:8) [compound 2190] | 88%
32 | 2191 (ANINKDRDNVPAATSSLSKAYNP; Peptide reported in WO2013040142, SEQ ID NO:2326359) [compound 2191] | 92%
33 | 2192 (SFRTARANAPTGRSSLSGEKEQQEASTHS; Peptide reported in WO2013040142, SEQ ID NO:3136558) [compound 2192] | 91%
34 | 2193 (DKPEESSSTPTHAQCICSSLSEAIVSSVLSTRLVLSQISLTRAKRAFE; Peptide reported in US20130333061, SEQ ID NO:139889) [compound 2193] | 87%
35 | 2194 (KGSEYEKLVVSGITQVYQSSLSWHGCKSCCEVQVXNLXILIRLYDVHYYN; Peptide reported in US20040172684, SEQ ID NO:47782; MOD_RES (35), (38): Xaa is A) [compound 2194] | 88%
36 | 2195 (MALPQPRGSSLSKAPVVVAPCMALKRVNIRSIVFEVLKTMNQNCIHETPN; Peptide reported in US20130333061, SEQ ID NO:158498) [compound 2195] | 82%
37 | 2196 (MAAQDEWRDAITLTMGRDLKKVPQHLNAISVIDPVT; Peptide reported in US20120246748, SEQ ID NO:111359) [compound 2196] | 83%
38 | 2197 (LSLLAPPEPVWNHETSYGSDCHVPTNVNAISKMIDKSNHQTG; Peptide reported in US20140130203, SEQ ID NO:119179) [compound 2197] | 93%
39 | 2198 (APTKLNAISVLYFDDSSNVILKKYRNMIVKS; Peptide reported in US20120244575, SEQ ID NO:4530) [compound 2198] | 84%
